The values that follow come from patent publication US20250215012A1, “IKZF2 DEGRADERS AND USES THEREOF” (REGENTS OF THE UNIVERSITY OF MICHIGAN, priority 2022, published 2025).

A value given as a limit tells only on which side of the number the result lay.

The target in the assay is IKZF2 (Homo sapiens (Human), UniProt Q96SW2+Q9UKS7). Briefly: IKZF2 HiBiT Assay (Jurkat-IKZF2-HiBiT cell line). The class given is cell-based. The conditions noted are these: Jurkat-IKZF2-HiBiT cells, 24 hours; for DC50: read-out: HiBit assay degradation analysis DC50; for Dmax: read-out: HiBit assay degradation analysis Dmax. Summed up:
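IKZF2 degradation was assessed as HiBiT luminescence in Jurkat-IKZF2-HiBiT cells, using lytic detection after 24 h of compound treatment at 37 °C, 5% CO2.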
For orientation: HiBiT is a short tag that completes a luciferase, so light tracks the accessible tagged protein.

Sequence of IKZF2 (Q9UKS7 whole entry): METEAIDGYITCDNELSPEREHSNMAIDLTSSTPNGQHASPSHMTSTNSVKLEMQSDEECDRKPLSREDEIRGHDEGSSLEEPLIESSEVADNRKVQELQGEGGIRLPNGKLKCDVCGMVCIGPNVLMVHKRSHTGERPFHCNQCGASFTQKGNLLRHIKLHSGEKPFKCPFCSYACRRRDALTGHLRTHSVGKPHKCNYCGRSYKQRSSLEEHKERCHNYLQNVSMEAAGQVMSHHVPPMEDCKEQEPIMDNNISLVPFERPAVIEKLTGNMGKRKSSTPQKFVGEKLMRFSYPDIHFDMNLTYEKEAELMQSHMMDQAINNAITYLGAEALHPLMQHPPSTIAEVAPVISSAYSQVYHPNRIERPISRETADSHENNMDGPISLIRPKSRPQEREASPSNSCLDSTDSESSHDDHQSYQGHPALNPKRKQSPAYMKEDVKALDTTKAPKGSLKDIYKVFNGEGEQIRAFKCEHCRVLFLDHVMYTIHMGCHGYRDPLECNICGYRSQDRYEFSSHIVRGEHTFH
Sequence of IKZF2 (Q96SW2 whole entry): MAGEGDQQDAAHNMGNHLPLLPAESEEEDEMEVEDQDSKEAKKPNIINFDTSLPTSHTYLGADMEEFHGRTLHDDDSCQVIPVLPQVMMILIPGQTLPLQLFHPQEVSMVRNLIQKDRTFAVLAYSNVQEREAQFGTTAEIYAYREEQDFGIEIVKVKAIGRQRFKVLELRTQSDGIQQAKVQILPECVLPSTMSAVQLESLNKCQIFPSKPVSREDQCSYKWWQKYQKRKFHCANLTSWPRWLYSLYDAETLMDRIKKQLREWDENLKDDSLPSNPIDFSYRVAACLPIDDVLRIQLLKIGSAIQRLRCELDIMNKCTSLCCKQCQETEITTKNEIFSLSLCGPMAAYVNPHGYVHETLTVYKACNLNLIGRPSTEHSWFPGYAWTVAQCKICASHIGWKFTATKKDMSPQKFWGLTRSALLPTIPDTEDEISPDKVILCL
Sequence of IKZF2 (Q16531 whole entry partner): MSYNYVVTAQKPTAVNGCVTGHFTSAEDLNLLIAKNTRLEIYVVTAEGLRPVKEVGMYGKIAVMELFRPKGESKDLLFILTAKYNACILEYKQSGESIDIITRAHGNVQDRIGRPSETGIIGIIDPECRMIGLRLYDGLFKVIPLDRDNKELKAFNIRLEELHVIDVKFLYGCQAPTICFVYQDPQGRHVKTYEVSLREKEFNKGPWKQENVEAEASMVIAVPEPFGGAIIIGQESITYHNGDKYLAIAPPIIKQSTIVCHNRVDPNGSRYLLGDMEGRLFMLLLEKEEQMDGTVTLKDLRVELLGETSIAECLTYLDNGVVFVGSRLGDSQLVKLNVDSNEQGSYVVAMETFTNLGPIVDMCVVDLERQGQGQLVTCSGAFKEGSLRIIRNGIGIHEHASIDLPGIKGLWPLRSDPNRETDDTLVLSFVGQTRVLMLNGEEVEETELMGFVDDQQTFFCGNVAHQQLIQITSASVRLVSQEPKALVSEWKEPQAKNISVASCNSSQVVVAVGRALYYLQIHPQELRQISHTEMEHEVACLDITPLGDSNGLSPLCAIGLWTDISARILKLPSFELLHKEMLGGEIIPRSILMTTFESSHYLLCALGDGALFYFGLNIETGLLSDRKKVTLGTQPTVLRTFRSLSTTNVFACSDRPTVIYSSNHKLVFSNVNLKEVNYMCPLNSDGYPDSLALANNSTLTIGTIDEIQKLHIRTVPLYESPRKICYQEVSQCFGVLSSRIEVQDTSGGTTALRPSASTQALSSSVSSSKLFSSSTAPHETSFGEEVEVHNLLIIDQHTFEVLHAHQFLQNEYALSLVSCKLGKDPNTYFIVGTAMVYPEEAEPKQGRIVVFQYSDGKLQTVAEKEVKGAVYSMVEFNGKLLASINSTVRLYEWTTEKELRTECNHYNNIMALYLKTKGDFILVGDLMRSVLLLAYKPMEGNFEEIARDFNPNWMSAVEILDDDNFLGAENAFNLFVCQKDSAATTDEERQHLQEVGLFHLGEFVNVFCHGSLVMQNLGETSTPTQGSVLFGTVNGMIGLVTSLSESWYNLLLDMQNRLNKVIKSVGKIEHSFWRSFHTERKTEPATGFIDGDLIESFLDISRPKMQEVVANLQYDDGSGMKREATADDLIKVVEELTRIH

Regarding `[2H]C([2H])([2H])n1cc2ccc(CN3CCC4(CC3)COc3c4ccc4c3CN([C@H]3CCC(=O)NC3=O)C4=O)cc2n1` [Compound A301, (S)-3-(1′-((2-(methyl-d3)-2H-indazol-6-yl)methyl)-6-oxo-6,8-dihydro-2H,7H-spiro[furo[2,3-e]isoindole-3,4′-piperidin]-7-yl)piperidine-2,6-dione], the 50% degradation concentration (DC50) (in general, the concentration at which degradation of the target reaches its halfway point) is < 0.05 µM and the Dmax (commonly the largest share of the target that was removed) fell in the range of 60 to 80%.

Take `Cn1cc(-c2ccc(CN3CCC4(CC3)COc3c4ccc4c3CN(C3CCC(=O)NC3=O)C4=O)cc2)cn1` (stereo not shown) [Compound A148, 3-(1′-(4-(1-methyl-1H-pyrazol-4-yl)benzyl)-6-oxo-6,8-dihydro-2H,7H-spiro[furo[2,3-e]isoindole-3,4′-piperidin]-7-yl)piperidine-2,6-dione]: the DC50 was < 0.05 µM and the maximal degradation (Dmax) was 60 to 80%.

For the molecule `Cn1ncc2ccc(CN3CCC4(CC3)COc3c4ccc4c3CN(C3CCC(=O)NC3=O)C4=O)cc21` (stereo not shown) [Compound A57, 3-(1′-((1-methyl-1H-indazol-6-yl)methyl)-6-oxo-6,8-dihydro-2H,7H-spiro[furo[2,3-e]isoindole-3,4′-piperidin]-7-yl)piperidine-2,6-dione], the DC50 is 0.05 to 0.2 µM and the Dmax is 60 to 80%.

For `Cn1cc(-c2cccc(CN3CCC4(CC3)OCc3c4ccc4c3CN(C3CCC(=O)NC3=O)C4=O)c2)cn1` (stereo not shown) [Compound A259, 3-(1′-(3-(1-methyl-1H-pyrazol-4-yl)benzyl)-6-oxo-6,8-dihydrospiro[furo[3,4-e]isoindoline-3,4′-piperidin]-7(1H)-yl)piperidine-2,6-dione], the DC50 is > 0.5 µM and the Dmax lay within 40 to 60%.

Regarding `O=C1CC[C@H](N2Cc3c(ccc4c3OCC43CCN(Cc4cccc(-c5ccn(C(F)F)n5)c4)CC3)C2=O)C(=O)N1` [Compound A289, (S)-3-(1′-(3-(1-(difluoromethyl)-1H-pyrazol-3-yl)benzyl)-6-oxo-6,8-dihydro-2H,7H-spiro[furo[2,3-e]isoindole-3,4′-piperidin]-7-yl)piperidine-2,6-dione], the DC50 is < 0.05 µM and the greatest degradation seen (Dmax) lay within 60 to 80%.

Regarding `O=C1CCC(N2Cc3c(ccc4c3OCC43CCN(Cc4ccsc4)CC3)C2=O)C(=O)N1` (stereo not shown) [Compound A183, 3-(6-oxo-1′-(thiophen-3-ylmethyl)-6,8-dihydro-2H,7H-spiro[furo[2,3-e]isoindole-3,4′-piperidin]-7-yl)piperidine-2,6-dione], the DC50 was 0.2 to 0.5 µM and the Dmax was 40 to 60%.

On to `O=C1CCC(N2Cc3c(ccc4c3OCC43CCN(Cc4cccc(-n5cccn5)c4)CC3)C2=O)C(=O)N1` (stereo not shown) [Compound A107, 3-(1′-(3-(1H-pyrazol-1-yl)benzyl)-6-oxo-6,8-dihydro-2H,7H-spiro[furo[2,3-e]isoindole-3,4′-piperidin]-7-yl)piperidine-2,6-dione], for which the DC50 was < 0.05 µM and the Dmax was 60 to 80%.

In the case of `O=C1CCC(N2Cc3c(ccc4c3OCC43CCN(Cc4cccc(-c5cn[nH]c5)c4)CC3)C2=O)C(=O)N1` (stereo not shown) [Compound A104, 3-(1′-(3-(1H-pyrazol-4-yl)benzyl)-6-oxo-6,8-dihydro-2H,7H-spiro[furo[2,3-e]isoindole-3,4′-piperidin]-7-yl)piperidine-2,6-dione], the DC50 was < 0.05 µM and the Dmax was > 80%.

Regarding `O=C1CCC(N2Cc3c(ccc4c3OCC43CCN(Cc4cnn(S(=O)(=O)c5ccccc5)c4)CC3)C2=O)C(=O)N1` (stereo not shown) [Compound A336, 3-(6-oxo-1′-((1-(phenylsulfonyl)-1H-pyrazol-4-yl)methyl)-6,8-dihydro-2H,7H-spiro[furo[2,3-e]isoindole-3,4′-piperidin]-7-yl)piperidine-2,6-dione], the DC50 is > 0.5 µM and the greatest degradation seen (Dmax) was 40 to 60%.

As for `O=C1CC[C@H](N2Cc3c(ccc4c3OCC43CCN(Cc4ccc5c(c4)NC(=O)CC5)CC3)C2=O)C(=O)N1` [Compound A303, 3-(6-oxo-1′-((2-oxo-1,2,3,4-tetrahydroquinolin-7-yl)methyl)-6,8-dihydro-2H,7H-spiro[furo[2,3-e]isoindole-3,4′-piperidin]-7-yl)piperidine-2,6-dione], the DC50 was 0.2 to 0.5 µM and the Dmax lay within 60 to 80%.

`CCc1ccc(CN2CCC3(CC2)COc2c3ccc3c2CN(C2CCC(=O)NC2=O)C3=O)cc1` (stereo not shown) [Compound A16, 3-(1′-(4-ethylbenzyl)-6-oxo-6,8-dihydro-2H,7H-spiro[furo[2,3-e]isoindole-3,4′-piperidin]-7-yl)piperidine-2,6-dione]: the 50% degradation concentration (DC50) was > 0.5 µM and the Dmax is < 40%.

Consider `O=C1CC[C@H](N2Cc3c(ccc4c3OCC43CCN(Cc4ccc5cc[nH]c5c4)CC3)C2=O)C(=O)N1` [Compound A172, (S)-3-(1′-((1H-indol-6-yl)methyl)-6-oxo-6,8-dihydro-2H,7H-spiro[furo[2,3-e]isoindole-3,4′-piperidin]-7-yl)piperidine-2,6-dione], for which the DC50 was < 0.05 µM and the Dmax was in the range of 60 to 80%.

As for `O=C1CC[C@H](N2Cc3c(ccc4c3OCC43CCN(Cc4cnn(CC5C[C@@H]5c5ccccc5)c4)CC3)C2=O)C(=O)N1` (stereo partly drawn) [Compound A347, (S)-3-(6-oxo-1′-((1-(((1S,2S)-2-phenylcyclopropyl)methyl)-1H-pyrazol-4-yl)methyl)-6,8-dihydro-2H,7H-spiro[furo[2,3-e]isoindole-3,4′-piperidin]-7-yl)piperidine-2,6-dione], the DC50 was < 0.05 µM.

Regarding `O=C1CC[C@H](N2Cc3c(ccc4c3OCC43CCN(Cc4cccc(-c5cnn([C@H]6CCOC6)c5)c4)CC3)C2=O)C(=O)N1` [Compound A269, (S)-3-(6-oxo-1′-(3-(1-((S)-tetrahydrofuran-3-yl)-1H-pyrazol-4-yl)benzyl)-6,8-dihydro-2H,7H-spiro[furo[2,3-e]isoindole-3,4′-piperidin]-7-yl)piperidine-2,6-dione], the DC50 lay in the range of 0.05 to 0.2 µM and the Dmax is 60 to 80%.

With `O=C1CCC(N2Cc3c(ccc4c3OCC43CCN(CC4Cc5ccccc5C4)CC3)C2=O)C(=O)N1` (stereo not shown) [Compound A22, 3-(1′-((2,3-dihydro-1H-inden-2-yl)methyl)-6-oxo-6,8-dihydro-2H,7H-spiro[furo[2,3-e]isoindole-3,4′-piperidin]-7-yl)piperidine-2,6-dione], the DC50 is > 0.5 µM and the greatest degradation seen (Dmax) was < 40%.

In the case of `O=C1CCC(N2Cc3c(ccc4c3OCC43CCN(Cc4cccc5cccc(F)c45)CC3)C2=O)C(=O)N1` (stereo not shown) [Compound A50, 3-(1′-((8-fluoronaphthalen-1-yl)methyl)-6-oxo-6,8-dihydro-2H,7H-spiro[furo[2,3-e]isoindole-3,4′-piperidin]-7-yl)piperidine-2,6-dione], the DC50 is < 0.05 µM and the Dmax is 60 to 80%.

`O=C1CC[C@H](N2Cc3c(ccc4c3OCC43CCN(Cc4cnn(S(=O)(=O)c5cccc(Cl)c5F)c4)CC3)C2=O)C(=O)N1` [Compound A357, (S)-3-(1′-((1-((3-chloro-2-fluorophenyl)sulfonyl)-1H-pyrazol-4-yl)methyl)-6-oxo-6,8-dihydro-2H,7H-spiro[furo[2,3-e]isoindole-3,4′-piperidin]-7-yl)piperidine-2,6-dione]: the Dmax lay within 60 to 80%.

As for `O=C1CCC(N2Cc3c(ccc4c3OCC43CCN(Cc4cnn5c4CCCC5)CC3)C2=O)C(=O)N1` (stereo not shown) [Compound A245, 3-(6-oxo-1′-((4,5,6,7-tetrahydropyrazolo[1,5-a]pyridin-3-yl)methyl)-6,8-dihydro-2H,7H-spiro[furo[2,3-e]isoindole-3,4′-piperidin]-7-yl)piperidine-2,6-dione], the DC50 lay within 0.2 to 0.5 µM and the Dmax is 40 to 60%.

Take `CC(=O)Nc1cccc(CN2CCC3(CC2)COc2c3ccc3c2CN(C2CCC(=O)NC2=O)C3=O)c1` (stereo not shown) [Compound A176, N-(3-((7-(2,6-dioxopiperidin-3-yl)-6-oxo-7,8-dihydro-2H,6H-spiro[furo[2,3-e]isoindole-3,4′-piperidin]-1′-yl)methyl)phenyl) acetamide]: the DC50 is > 0.5 µM and the greatest degradation seen (Dmax) was in the range of 40 to 60%.

On to `O=C1CCC(N2Cc3c(ccc4c3OCC43CCN(Cc4nn(CC5COCCO5)c5ccccc45)CC3)C2=O)C(=O)N1` (stereo not shown) [Compound A328, 3-(1′-((1-((1,4-dioxan-2-yl)methyl)-1H-indazol-3-yl)methyl)-6-oxo-6,8-dihydro-2H,7H-spiro[furo[2,3-e]isoindole-3,4′-piperidin]-7-yl)piperidine-2,6-dione], for which the DC50 is < 0.05 µM and the Dmax was 60 to 80%.

In the case of `CN(C(=O)c1cccc(CN2CCC3(CC2)COc2c3ccc3c2CN(C2CCC(=O)NC2=O)C3=O)c1)c1cccc(F)c1` (stereo not shown) [Compound A166, 3-((7-(2,6-dioxopiperidin-3-yl)-6-oxo-7,8-dihydro-2H,6H-spiro[furo[2,3-e]isoindole-3,4′-piperidin]-1′-yl)methyl)-N-(3-fluorophenyl)-N-methylbenzamide], the DC50 was 0.05 to 0.2 µM and the Dmax is 40 to 60%.

With `O=C1CCC(N2Cc3c(ccc4c3COC43CCN(Cc4cccc(-c5cc[nH]n5)c4)CC3)C2=O)C(=O)N1` (stereo not shown) [Compound A260, 3-(1′-(3-(1H-pyrazol-3-yl)benzyl)-6-oxo-6,8-dihydrospiro[furo[3,4-e]isoindoline-3,4′-piperidin]-7(1H)-yl)piperidine-2,6-dione], the DC50 is > 0.5 µM and the Dmax is 40 to 60%.

For `O=C1CCC(N2Cc3c(ccc4c3OCC43CCN(Cc4ccc5c(c4)OC(F)(F)O5)CC3)C2=O)C(=O)N1` (stereo not shown) [Compound A193, 3-(1′-((2,2-difluorobenzo[d][1,3]dioxol-5-yl)methyl)-6-oxo-6,8-dihydro-2H,7H-spiro[furo[2,3-e]isoindole-3,4′-piperidin]-7-yl)piperidine-2,6-dione], the half-maximal degradation concentration (DC50) was > 0.5 µM and the Dmax is < 40%.

As to `O=C1CCC(N2Cc3c(ccc4c3OCC43CCN(Cc4cc5ccccc5s4)CC3)C2=O)C(=O)N1` (stereo not shown) [Compound A184, 3-(1′-(benzo[b]thiophen-2-ylmethyl)-6-oxo-6,8-dihydro-2H,7H-spiro[furo[2,3-e]isoindole-3,4′-piperidin]-7-yl)piperidine-2,6-dione], the half-maximal degradation concentration (DC50) was > 0.5 µM and the Dmax was < 40%.
